Results on 36 compounds are retold here after ChEMBL document CHEMBL4184318, “Identification of Fast-Acting 2,6-Disubstituted Imidazopyridines That Are Efficacious in the in Vivo Humanized Plasmodium falciparum NODscidIL2Rγ null Mouse Model of Malaria” (J Med Chem, 2018).

≈ marks a conversion by molar mass, not a printed value.

Type in all cases: physicochemical
Conditions in all cases: read-out: Kinetic_solubility

Data set [1] in a line: Kinetic solubility of the compound in phosphate buffered saline at pH 6.5 after 20 hrs by shake flask method.
A short description of data set [2]: Kinetic solubility of the compound in HCl at pH 2 after 20 hrs by shake flask method.
A short description of data set [3]: Kinetic solubility of the compound in FaSSIF at pH 6.5 after 20 hrs by shake flask method.

With `FC(F)(F)c1cccc(-c2nc3cnc(Nc4ccc(N5CCOCC5)cn4)cc3[nH]2)c1`, the solubility kinetic at 20 h in data set [1] is under 5 µM; in data set [2], 87 µM (≈ 38.3 µg/mL); in data set [3], 35 µM (≈ 15.4 µg/mL).

Take `Fc1ccc(-c2nc3cnc(Nc4ccccn4)cc3[nH]2)cc1F`: the solubility kinetic at 20 h in data set [1] was under 5 µM; in data set [2] it was 125 µM (≈ 40.4 µg/mL); in data set [3] it was 50 to 100 µM (≈ 16.2 to 32.3 µg/mL).

As to `O=C(c1ccc(Nc2cc3[nH]c(-c4ccc(C(F)(F)F)nc4)nc3cn2)nc1)N1CCOCC1`, the solubility kinetic at 20 h amounted to 33 µM (≈ 15.5 µg/mL) in data set [1], 200 µM (≈ 93.9 µg/mL) in data set [2] and 58 µM (≈ 27.2 µg/mL) in data set [3].

Consider `Fc1ccnc(Nc2cc3[nH]c(-c4ccc(F)c(F)c4)nc3cn2)c1`, for which the results for the solubility kinetic at 20 h in data set [1], in data set [2] and in data set [3] were under 5 µM, 166 µM (≈ 56.7 µg/mL) and 50 to 100 µM (≈ 17.1 to 34.1 µg/mL), respectively.

`COc1ccc(Nc2cc3[nH]c(-c4cccc(C(F)(F)F)c4)nc3cn2)nc1`: the solubility kinetic at 20 h in data set [1] and in data set [2] was under 5 µM each time.

In the case of `COc1ccnc(Nc2cc3[nH]c(-c4cccc(C(F)(F)F)c4)nc3cn2)c1`, the solubility kinetic at 20 h in data set [1] and in data set [2] was under 5 µM each time.

As for `Fc1ccc(-c2nc3cnc(Nc4ccccn4)cc3[nH]2)cc1C(F)(F)F`, the solubility kinetic at 20 h was under 5 µM in data set [1], 7 µM (≈ 2.61 µg/mL) in data set [2] and 50 to 100 µM (≈ 18.7 to 37.3 µg/mL) in data set [3].

For the compound `FC(F)(F)c1cccc(-c2nc3cnc(Nc4cccc(C(F)(F)F)n4)cc3[nH]2)c1`, the solubility kinetic at 20 h was under 5 µM in data set [1], 51 µM (≈ 21.6 µg/mL) in data set [2] and 50 to 100 µM (≈ 21.2 to 42.3 µg/mL) in data set [3].

Turning to `O=C(c1ccc(Nc2cc3[nH]c(-c4ccc(C(F)(F)F)nc4)nc3cn2)nc1)N1CCCC1`, the solubility kinetic at 20 h is under 5 µM in data set [1], 196 µM (≈ 88.9 µg/mL) in data set [2] and under 5 µM in data set [3].

For the compound `FC(F)(F)c1cccc(-c2nc3cnc(Nc4ncccn4)cc3[nH]2)c1`, the solubility kinetic at 20 h in data set [1] is under 5 µM; in data set [2], 155 µM (≈ 55.2 µg/mL).

`FC(F)(F)c1ccc(Nc2cc3[nH]c(C4CCOCC4)nc3cn2)nc1`: the solubility kinetic at 20 h came to 155 µM (≈ 56.3 µg/mL) in data set [1], 196 µM (≈ 71.2 µg/mL) in data set [2] and 168 µM (≈ 61 µg/mL) in data set [3].

Consider `N#Cc1ccc(Nc2cc3[nH]c(-c4cccc(C(F)(F)F)c4)nc3cn2)nc1`, for which the solubility kinetic at 20 h was under 5 µM in data set [1], under 5 µM in data set [2] and 50 to 100 µM (≈ 19 to 38 µg/mL) in data set [3].

`FC1(F)CC(c2nc3cnc(Nc4ccc(C(F)(F)F)cn4)cc3[nH]2)C1`: the solubility kinetic at 20 h came out at 118 µM (≈ 43.6 µg/mL) in data set [1], 181 µM (≈ 66.8 µg/mL) in data set [2] and 161 µM (≈ 59.5 µg/mL) in data set [3].

Consider `O=C(O)c1ccc(Nc2cc3[nH]c(-c4ccc(F)c(F)c4)nc3cn2)nc1`, for which the solubility kinetic at 20 h in data set [1] amounted to 7 µM (≈ 2.57 µg/mL); in data set [2] it was 11 µM (≈ 4.04 µg/mL); in data set [3] it was 9 µM (≈ 3.31 µg/mL).

Take `FC(F)(F)c1ccc(Nc2cc3[nH]c(C4CC4)nc3cn2)nc1`: the solubility kinetic at 20 h in data set [1] was under 5 µM; in data set [2], 198 µM (≈ 63.2 µg/mL); in data set [3] it was 123 µM (≈ 39.3 µg/mL).

As for `Fc1cnc(Nc2cc3[nH]c(-c4cccc(C(F)(F)F)c4)nc3cn2)c(F)c1`, the solubility kinetic at 20 h was under 5 µM in data set [1], under 5 µM in data set [2] and 50 to 100 µM (≈ 19.6 to 39.1 µg/mL) in data set [3].

With `O=C(NC1CC1)c1ccc(Nc2cc3[nH]c(-c4ccc(C(F)(F)F)nc4)nc3cn2)nc1`, the solubility kinetic at 20 h is under 5 µM in data set [1], 99 µM (≈ 43.5 µg/mL) in data set [2] and under 5 µM in data set [3].

In the case of `Fc1ccc(-c2nc3cnc(Nc4ccc(C(F)(F)F)cn4)cc3[nH]2)cc1F`, the solubility kinetic at 20 h in data set [1] was under 5 µM; in data set [2] it was 6 µM (≈ 2.35 µg/mL); in data set [3], 50 to 100 µM (≈ 19.6 to 39.1 µg/mL).

For the compound `FC(F)(F)c1cccc(-c2nc3cnc(Nc4ccncn4)cc3[nH]2)c1`, the solubility kinetic at 20 h was under 5 µM in data set [1] and 200 µM (≈ 71.3 µg/mL) in data set [2].

As for `CCOC(=O)c1ccc(Nc2cc3[nH]c(-c4ccc(C(F)(F)F)nc4)nc3cn2)nc1`, the solubility kinetic at 20 h in data set [1] was under 5 µM; in data set [2] it was 164 µM (≈ 70.3 µg/mL); in data set [3], 127 µM (≈ 54.4 µg/mL).

For `COc1cccnc1Nc1cc2[nH]c(-c3cccc(C(F)(F)F)c3)nc2cn1`, the solubility kinetic at 20 h in data set [1] was under 5 µM; in data set [2], 116 µM (≈ 44.7 µg/mL).

On to `CN1CCN(c2ccc(Nc3cc4[nH]c(-c5cccc(C(F)(F)F)c5)nc4cn3)nc2)CC1`, for which the figures for the solubility kinetic at 20 h in data set [2] and in data set [3] were 190 µM (≈ 86.2 µg/mL) and under 5 µM, respectively.

Consider `FC(F)(F)c1ccc(-c2nc3cnc(Nc4ccccn4)cc3[nH]2)cn1`, for which the solubility kinetic at 20 h in data set [1] is under 5 µM; in data set [2] it was 180 µM (≈ 64.1 µg/mL); in data set [3] it was 50 to 100 µM (≈ 17.8 to 35.6 µg/mL).

In the case of `FC(F)(F)Oc1ccc(-c2nc3cnc(Nc4ccccn4)cc3[nH]2)cc1`, the figures for the solubility kinetic at 20 h in data set [1] and in data set [2] were under 5 µM and 26 µM (≈ 9.65 µg/mL), respectively.

With `FC(F)(F)c1cccc(-c2nc3cnc(Nc4ccc(-c5nnn[nH]5)cn4)cc3[nH]2)c1`, the solubility kinetic at 20 h in data set [1], in data set [2] and in data set [3] was under 5 µM each time.

For the compound `FC1(F)CCC(c2nc3cnc(Nc4ccc(C(F)(F)F)cn4)cc3[nH]2)C1` (configuration not stated), the solubility kinetic at 20 h in data set [1] came to 120 µM (≈ 46 µg/mL); in data set [2] it was 185 µM (≈ 70.9 µg/mL); in data set [3], 163 µM (≈ 62.5 µg/mL).

In the case of `O=C(O)c1ccnc(Nc2cc3[nH]c(-c4ccc(C(F)(F)F)nc4)nc3cn2)c1`, the solubility kinetic at 20 h in data set [1], in data set [2] and in data set [3] was under 5 µM throughout.

As for `O=C(O)c1ccc(Nc2cc3[nH]c(-c4ccc(C(F)(F)F)nc4)nc3cn2)nc1`, the figures for the solubility kinetic at 20 h in data set [1], in data set [2] and in data set [3] were under 5 µM, 8 µM (≈ 3.2 µg/mL) and under 5 µM, respectively.

In the case of `FC(F)(F)c1cccc(-c2nc3cnc(Nc4ccncc4)cc3[nH]2)c1`, the solubility kinetic at 20 h was 10 µM (≈ 3.55 µg/mL) in data set [1] and 200 µM (≈ 71.1 µg/mL) in data set [2].

With `FC(F)(F)c1ccc(Nc2cc3[nH]c([C@H]4CC[C@H](C(F)(F)F)CC4)nc3cn2)nc1`, the solubility kinetic at 20 h in data set [1] is under 5 µM; in data set [2], 200 µM (≈ 85.9 µg/mL); in data set [3] it was 104 µM (≈ 44.7 µg/mL).

Consider `CNC(=O)c1ccc(Nc2cc3[nH]c(-c4ccc(C(F)(F)F)nc4)nc3cn2)nc1`, for which the results for the solubility kinetic at 20 h in data set [1], in data set [2] and in data set [3] were under 5 µM, 170 µM (≈ 70.3 µg/mL) and under 5 µM, respectively.

Take `CC1(c2nc3cnc(Nc4ccc(C(F)(F)F)cn4)cc3[nH]2)CC1`: the solubility kinetic at 20 h in data set [1] is 188 µM (≈ 62.7 µg/mL); in data set [2], 200 µM (≈ 66.7 µg/mL); in data set [3], 179 µM (≈ 59.7 µg/mL).

Take `FC(F)(F)c1cccc(-c2nc3cnc(Nc4cccnn4)cc3[nH]2)c1`: the solubility kinetic at 20 h is under 5 µM in data set [1] and 161 µM (≈ 57.4 µg/mL) in data set [2].

Turning to `O=C(O)c1ccnc(Nc2cc3[nH]c(-c4cccc(C(F)(F)F)c4)nc3cn2)c1`, the solubility kinetic at 20 h in data set [1] is under 5 µM; in data set [2] it was under 5 µM; in data set [3] it was 60 µM (≈ 24 µg/mL).

`FC(F)(F)c1cccc(-c2nc3cnc(Nc4cnccn4)cc3[nH]2)c1`: the solubility kinetic at 20 h in data set [1] is under 5 µM; in data set [2], 155 µM (≈ 55.2 µg/mL).

`COc1cccc(Nc2cc3[nH]c(-c4cccc(C(F)(F)F)c4)nc3cn2)n1`: the values for the solubility kinetic at 20 h in data set [1] and in data set [2] were under 5 µM and 85 µM (≈ 32.8 µg/mL), respectively.
